Assay [1] concerns the target T1, horseradish peroxidase (HRP) tagged delF508-CFTR (Homo sapiens, UniProt P13569, DEL508-508).
T1 construct: expressed in transfected cells
Nature of the assay: Measurement of delF508-CFTR-HRP surface expression in CFBE41o- cells.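 For DelF508-CFTR-HRP Amax %: percent efficacy relative to reference corrector lumacaftor.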 Conditions: delF508-CFTR-HRP surface expression, CFBE41o- cells; for Emax: read-out: DelF508-CFTR-HRP Amax %; for EC50: read-out: DelF508-CFTR-HRP EC50. It counts as cell-based. In outline:
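CFBE41o- bronchial epithelial cells stably expressing delF508-CFTR with HRP in the fourth extracellular loop; expression induced 48h with 500 ng/mL doxycycline, then compounds added (top 10 μM, 10-point 3-fold series, ≤0.5% DMSO) for 24h at 37° C. Surface HRP measured by luminescence with cell-impermeant substrate; EC50 from logistic fit of triplicates, plate-normalized to lowest concentration; efficacy also relative to a reference corrector.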

In the next assay the target is T2, delF508-CFTR (Homo sapiens, UniProt P13569, DEL508-508).
T2 construct: functional activity of the CFTR channel (Chloride ion transport) in patient derived primary human bronchial epithelial cells; host or cells: patient-derived primary human bronchial epithelial cells (delF508-CFTR)
Description: Measurement of delF508-CFTR functional activity in primary human bronchial epithelial cells (HBECs) using Multi-Transepithelial Clamp Circuit (MTECC-24) assay. The assay is classed as cell-based. Conditions: primary CF HBECs; for MTECC24 CFHBEC- Amax %: test compound added 24h before assay plus potentiator, relative to reference combination (2 μM corrector + 0.5 μM potentiator); for EC50: test compound added 24h before assay, in the presence of potentiator, mean of at least two replicates, read-out: MTECC24 CFHBEC- EC50. In outline: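 Patient-derived primary delF508-CFTR HBECs, differentiated at air-liquid interface ~2 weeks, treated basolaterally with compound for 24 h, then apical and basolateral compound in HEPES pH 7.4 assay medium. Equivalent short-circuit current (Ieq) recorded on MTECC-24 with sequential amiloride, forskolin, potentiator and INH-172; normalized to 0.1% DMSO, EC50 from curve fit.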

Structures can show the parent of a compound that is named as a salt.

The EC50 is the concentration that produces a half-maximal response.

T2 sequence (P13569 with tags, fused parts or gaps DEL508-508): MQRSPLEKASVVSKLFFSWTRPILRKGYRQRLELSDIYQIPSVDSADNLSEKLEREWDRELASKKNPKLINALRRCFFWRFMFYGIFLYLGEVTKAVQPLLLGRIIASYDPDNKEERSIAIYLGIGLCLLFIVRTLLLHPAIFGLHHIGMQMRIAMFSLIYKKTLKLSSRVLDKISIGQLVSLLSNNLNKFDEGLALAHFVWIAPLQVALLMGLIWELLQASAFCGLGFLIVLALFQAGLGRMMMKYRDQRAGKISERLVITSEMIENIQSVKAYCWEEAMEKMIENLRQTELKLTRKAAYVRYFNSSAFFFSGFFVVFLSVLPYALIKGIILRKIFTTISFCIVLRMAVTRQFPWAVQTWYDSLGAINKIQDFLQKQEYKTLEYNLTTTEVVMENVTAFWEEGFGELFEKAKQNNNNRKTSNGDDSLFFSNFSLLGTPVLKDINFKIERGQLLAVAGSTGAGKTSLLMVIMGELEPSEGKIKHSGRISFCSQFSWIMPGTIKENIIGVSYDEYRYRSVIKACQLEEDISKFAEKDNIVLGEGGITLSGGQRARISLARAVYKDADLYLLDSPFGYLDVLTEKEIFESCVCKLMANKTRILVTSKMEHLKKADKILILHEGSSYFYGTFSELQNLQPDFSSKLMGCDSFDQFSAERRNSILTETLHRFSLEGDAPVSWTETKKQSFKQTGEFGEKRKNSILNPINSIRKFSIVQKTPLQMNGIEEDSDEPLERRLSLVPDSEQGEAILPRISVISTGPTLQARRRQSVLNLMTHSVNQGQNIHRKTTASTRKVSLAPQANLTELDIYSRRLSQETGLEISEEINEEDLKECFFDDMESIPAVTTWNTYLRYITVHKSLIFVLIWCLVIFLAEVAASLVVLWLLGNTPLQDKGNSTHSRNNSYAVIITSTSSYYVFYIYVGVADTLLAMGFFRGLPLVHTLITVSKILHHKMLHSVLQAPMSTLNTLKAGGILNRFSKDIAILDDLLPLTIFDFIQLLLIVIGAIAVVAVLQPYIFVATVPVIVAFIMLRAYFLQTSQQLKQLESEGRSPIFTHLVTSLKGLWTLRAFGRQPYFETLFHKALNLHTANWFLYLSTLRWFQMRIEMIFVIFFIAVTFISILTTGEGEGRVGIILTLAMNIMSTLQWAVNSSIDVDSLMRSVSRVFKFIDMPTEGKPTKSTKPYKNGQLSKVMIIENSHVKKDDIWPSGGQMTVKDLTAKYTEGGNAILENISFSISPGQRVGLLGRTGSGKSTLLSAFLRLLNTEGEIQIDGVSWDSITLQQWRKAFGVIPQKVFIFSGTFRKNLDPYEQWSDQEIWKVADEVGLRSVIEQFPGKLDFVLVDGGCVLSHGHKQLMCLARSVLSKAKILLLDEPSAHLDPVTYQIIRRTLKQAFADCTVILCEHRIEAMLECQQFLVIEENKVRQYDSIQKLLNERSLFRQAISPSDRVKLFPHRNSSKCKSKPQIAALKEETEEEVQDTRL
T1 sequence (P13569 with tags, fused parts or gaps DEL508-508): as above

On to `Cc1cccc(C)c1-c1nc(NS(=O)(=O)c2cccc(N[C@H]3C[C@H](O)C3)n2)ccc1Cl` [Example 287, N-[5-chloro-6-(2,6-dimethylphenyl)pyridin-2-yl]-6-{[(1r,3r)-3-hydroxycyclobutyl]amino}pyridine-2-sulfonamide], for which, in assay [1], the Emax is 384% and the EC50 is 1410 nM. In addition, on delF508-CFTR, the “MTECC24 CFHBEC- Amax %” value is 74.8% and the EC50 was found to be 7.1 nM.
Turning to `Cc1ccccc1-c1nc(NS(=O)(=O)c2cccc(N3CCCC(C)(C(=O)O)C3)n2)ccc1C(F)(F)F` (stereo not drawn) [Example 337, 3-methyl-1-(6-{[6-(2-methylphenyl)-5-(trifluoromethyl)pyridin-2-yl]sulfamoyl}pyridin-2-yl)piperidine-3-carboxylic Acid], in assay [1], the EC50 worked out at 2250 nM. For the same compound, at delF508-CFTR, the “MTECC24 CFHBEC- Amax %” value came to 51.5% and the EC50 stood at 2.72 nM.
`CC1(C(=O)O)CCCN(c2cccc(S(=O)(=O)Nc3ccc(C(F)(F)F)c(-c4ccccc4C4CCC4)n3)n2)C1` (stereo not drawn) [Example 368, 1-(6-(N-(6-(2-cyclobutylphenyl)-5-(trifluoromethyl)pyridin-2-yl)sulfamoyl)pyridin-2-yl)-3-methylpiperidine-3-carboxylic Acid]: the EC50 in assay [1] was 671 nM. For the same compound, on delF508-CFTR, the “MTECC24 CFHBEC- Amax %” value is 66.2% and the concentration giving a half-maximal response (EC50) turned out to be 0.152 nM.
On to `Cc1ccc(F)cc1-c1nc(NS(=O)(=O)c2cccc(N[C@@H]3CCOC[C@@H]3O)n2)ccc1Cl` [Example 272, N-[5-chloro-6-(5-fluoro-2-methylphenyl)pyridin-2-yl]-6-{[(3R,4R)-3-hydroxyoxan-4-yl]amino}pyridine-2-sulfonamide], for which, in assay [1], the Emax is 806% and the EC50 came out at 2310 nM. Moreover, on delF508-CFTR, the “MTECC24 CFHBEC- Amax %” value is recorded as 66.4% and the EC50 is 10.5 nM.
`Cc1ccccc1-c1nc(NS(=O)(=O)c2cccc(N3CCN(C)CC3)n2)ccc1C(F)(F)F` [Example 189, 6-(4-methylpiperazin-1-yl)-N-(6-(o-tolyl)-5-(trifluoromethyl)pyridin-2-yl)pyridine-2-sulfonamide]: in assay [1], the Emax worked out at 414% and the EC50 was found to be 2830 nM. At delF508-CFTR, the “MTECC24 CFHBEC- Amax %” value amounted to 79.0% and the EC50 was found to be 31.7 nM.
For `Cc1ccccc1-c1nc(NS(=O)(=O)c2cccc(O[C@@H]3COC[C@@]3(C)O)n2)ccc1C(F)(F)F` (single isomer, unassigned) [Example 295], in assay [1], the Emax came out at 468% and the EC50 was 2030 nM. For the same compound, at delF508-CFTR, the “MTECC24 CFHBEC- Amax %” value is listed as 68.7% and the EC50 amounted to 26.1 nM.
On to `Cc1ccccc1-c1nc(NS(=O)(=O)c2cccc(NC3CCNCC3)n2)ccc1C(F)(F)F` [Example 112, 6-(piperidin-4-ylamino)-N-(6-(o-tolyl)-5-(trifluoromethyl)pyridin-2-yl)pyridine-2-sulfonamide Hydrochloride], for which, in assay [1], the Emax worked out at 172% and the EC50 amounted to 4050 nM. For the same compound, on delF508-CFTR, the “MTECC24 CFHBEC- Amax %” value came to 55.0% and the EC50 worked out at 495 nM.
Take `Cc1ccccc1-c1nc(NS(=O)(=O)c2cccc(N3CCNCC3)n2)ccc1Cl` [Example 195, N-(5-chloro-6-(o-tolyl)pyridin-2-yl)-6-(piperazin-1-yl)pyridine-2-sulfonamide hydrochloride]: in assay [1], the Emax came to 213% and the EC50 worked out at 3380 nM. At delF508-CFTR, the “MTECC24 CFHBEC- Amax %” value amounted to 80.0% and the EC50 worked out at 464 nM.
Take `Cc1ccccc1-c1nc(NS(=O)(=O)c2cccc(N[C@@H]3COCC[C@@H]3O)n2)ccc1C(F)(F)F` (racemic) [Example 280, rac-6-{[(3RS,4SR)-4-hydroxyoxan-3-yl]amino}-N-[6-(2-methylphenyl)-5-(trifluoromethyl)pyridin-2-yl]pyridine-2-sulfonamide]: in assay [1], the Emax worked out at 844% and the EC50 was determined as 1960 nM. On delF508-CFTR, the “MTECC24 CFHBEC- Amax %” value is 96.3% and the EC50 stood at 2.5 nM.
`Cc1ccccc1-c1nc(NS(=O)(=O)c2cccc(N3CCC4(CCC(CO)[C@H]4N)CC3)n2)ccc1C(F)(F)F` (stereo partly drawn) [Example 307, 6-((1R)-1-amino-2-(hydroxymethyl)-8-azaspiro[4.5]decan-8-yl)-N-(6-(o-tolyl)-5-(trifluoromethyl)pyridin-2-yl)pyridine-2-sulfonamide]: in assay [1], the Emax came to 259% and the EC50 was 3760 nM. On delF508-CFTR, the “MTECC24 CFHBEC- Amax %” value stood at 61.5% and the EC50 came to 45.8 nM.
The like results for `Cc1c(C#N)cccc1-c1nc(NS(=O)(=O)c2cccc(N3CC(C)(O)C3)n2)ccc1C(F)(F)F` [Example 308, N-(6-(3-cyano-2-methylphenyl)-5-(trifluoromethyl)pyridin-2-yl)-6-(3-hydroxy-3-methylazetidin-1-yl)pyridine-2-sulfonamide] were, in that order, 233%, 3750 nM, 60.7% and 207 nM.

The record behind these values is patent US11066369B2, “N-(pyridin-2-yl)pyridine-sulfonamide derivatives and their use in the treatment of disease” (Novartis AG, priority 2016, dated 2021).
